{"source": "paper PMC7127694", "about": "(Bioorganic & Medicinal Chemistry, 2009)", "key": {"BVDV": {"system": "BVDV", "conditions": "read-out: EC50 (anti-BVDV); cited from earlier work"}, "RSV": {"system": "RSV", "conditions": "read-out: EC50 (anti-RSV), cited from earlier work"}, "[1]": {"system": "HSV-1 (Herpes Simplex virus, Type-1)", "assay_type": "cell-based"}, "[2]": {"test": "Cytotoxicity on host cells, mean over the host cell lines", "conditions": "human, bovine, hamster, monkey"}}, "note": "pEC50: −log10 of the molar value. Where two headings read alike, the source gives them in different places."}
{"molecule": "3-[(dipropylaminoethyl)thio]-5H-1,2,4-triazino[5,6-b]indole [VP32947]", "values": [{"measurement": "pEC50", "setting": "BVDV", "result": "7.40 to 7.52"}]}
{"molecule": "O=c1n(Cc2nc3ccccc3n2CCCCO)c2cnccc2n1C1CC1", "note": "[BMS-433771]", "values": [{"measurement": "pEC50", "setting": "RSV; fusion inhibitor", "result": 7.68}]}
{"molecule": "Brc1ccc(Cn2ccc3nc(-c4ccccc4)nc-3c2)cc1", "note": "[BPIP, 5-[4-bromobenzyl]-2-phenyl-5H-imidazo[4,5-c]pyridine]", "values": [{"measurement": "pEC50", "setting": "BVDV", "result": "7.40 to 7.52"}]}
{"molecule": "CN(C)CCCNc1ccc(/N=N/c2cccc([N+](=O)[O-])c2)cc1.Cl", "note": "[Compound 2, N,N-Dimethyl-N′-[4-(3-nitrophenylazo)phenyl]propane-1,3-diamine]", "values": [{"measurement": "S. I. (selectivity index), HSV-1", "setting": "[1]", "result": 4.2}]}
{"molecule": "Fc1ccc(/N=N/c2ccc(NC[C@@H]3CCCN4CCCC[C@H]34)c3c2CCCC3)c(F)c1", "note": "[Compound 12]", "values": [{"measurement": "CC50", "setting": "[2]", "result": 21500, "unit": "nM"}]}
{"molecule": "CN(C)CCCN(/N=N/c1cc(F)ccc1F)c1ccccc1", "note": "[Compound 29, 1-[1-(2,5-Difluorophenyl)-3-phenyltriazen-3-yl]-N,N-dimethyl-3-propanamine]", "values": [{"measurement": "CC50", "setting": "[2]", "result": 17500, "unit": "nM"}]}
{"molecule": "O=C(Nc1ccccc1F)N[C@H]1N=C(c2ccccc2)c2ccccc2NC1=O", "note": "[RSV-604]", "values": [{"measurement": "pEC50", "setting": "RSV; S-enantiomer", "result": 6.05}]}
